Patent US6403810B2, “Thiophene derivatives” (Hoffmann-La Roche Inc., priority 2000, dated 2002)

How the values were obtained:
[1] = test system: rat elastase-induced emphysema; experiment: Repair of alveoli in elastase-induced emphysema (rat model); assay type: in vivo, male Sprague Dawley rats; settings: oral, once daily starting 21 days post elastase injury, morphometric analysis of lung sections
Protocol: A RAR selective agonist according to the invention was evaluated for its effects on alveolar repair in a rat model for rat elastase-induced emphysema in accordance to D. Massaro et al. Nature Medicine1997, 3, 675. Animals were divided into treatment groups of approximately eight. Lung inflammation and alveolar damage was induced in male Sprague Dawley rats by a single instillation of pancreatic elastase(porcine derived, Calbiochem) 2 U/gram body mass. Three weeks post injury, all-trans retinoic acid or RAR agonist test compound was dissolved in dimethyl-sulfoxide (20 mg/ml) and stored at −20 C. Fresh working stocks were prepared daily by dilution in PBS to a final concentration of 2mg/ml. Animals were dosed once daily with the retinoid by intraperitoneal injection or orally, starting 21 days post injury. Control groups were challenged with elastase and 21 days later treated with Vehicle (DMSO/PBS) for 14 days. Animals were sacrificed 24 hours after the last dose by exsanguination under deep anesthesia.
The lungs were inflated with 10% neutral buffered formalin by intratracheal instillation at a constant rate (1 ml/gram body mass/min). The lung was excised and immersed in fixative for 24 hours prior to processing. Standard methods were used to prepare 5 μm paraffin sections. Sections were stained with Hematoxylin and Eosin (H%E). Computerized Morphometric analysis was performed to determine the average alveolar size and alveolar number.

SMILES	% repair area ([1]; dose 0.0001 mg/kg) [%]	% repair area ([1]; dose 0.001 mg/kg) [%]	% repair area ([1]; dose 0.01 mg/kg) [%]	% repair area ([1]; dose 0.1 mg/kg) [%]	melting point [°C]
CCCCCCc1cc2c(cc1/C=C/c1ccc(C(=O)O)s1)C(C)(C)CCC2(C)C [Example 9, (E)-5-[2-(3-Hexyl-5,5,8,8-tetramethyl-5,6,7,8-tetrahydro-naphthalen-2-yl)-vinyl]-thiophene-2-carboxylic Acid]	38	42	18	42	
CCCCCc1cc2c(cc1/C=C/c1ccc(C(=O)O)s1)C(C)(C)CCC2(C)C [Example 9.2, (E)-5-[2-(3-pentyl-5,5,8,8-tetramethyl-5,6,7,8-tetrahydro-naphthalen-2-yl)-vinyl]thiophene-2-carboxylic acid]					176 to 177
